Data from ChEMBL document CHEMBL1146250, “Synthesis and antimicrobial activity of 7-fluoro-3-aminosteroids” (2007).
≈ marks a conversion by molar mass, not a printed value.

What was measured:
[1] = test system: Pseudomonas aeruginosa; test: Antimicrobial activity against Pseudomonas aeruginosa 1771M; assay type: functional
[2] = test system: Streptococcus pyogenes; test: Antimicrobial activity against Streptococcus pyogenes 308A; assay type: functional
[3] = test system: Salmonella typhimurium; test: Antimicrobial activity against Salmonella Typhimurium; assay type: functional, Salmonella enterica subsp. enterica serovar Typhimurium; conditions: Salmonella enterica
[4] = test system: Streptococcus pyogenes; test: Antimicrobial activity against Streptococcus pyogenes 77A; assay type: functional
[5] = test system: Staphylococcus aureus; test: Antimicrobial activity against Staphylococcus aureus 503; assay type: functional
[6] = test system: Pseudomonas aeruginosa; test: Antimicrobial activity against Pseudomonas aeruginosa 9027; assay type: functional
[7] = test system: Enterobacter cloacae; test: Antimicrobial activity against Enterobacter cloacae 1321E; assay type: functional
[8] = test system: Escherichia coli; test: Antimicrobial activity against Escherichia coli DC2; assay type: functional

Row | MIC [1] | MIC [2] | MIC [3] | MIC [4] | MIC [5] | MIC [6] | MIC [7] | MIC [8] | Structure (SMILES)
1 | 25 µg/mL (≈ 52.3 µM) | 25 µg/mL (≈ 52.3 µM) | 50 µg/mL (≈ 105 µM) | 25 µg/mL (≈ 52.3 µM) | 12.5 µg/mL (≈ 26.2 µM) | 12.5 µg/mL (≈ 26.2 µM) | 50 µg/mL (≈ 105 µM) | 25 µg/mL (≈ 52.3 µM) | C[C@@H](CO)[C@H]1CC[C@H]2[C@@H]3[C@H](O)C[C@H]4C[C@@H](NCCCNCCCCN)CC[C@]4(C)[C@H]3CC[C@]12C
2 | 50 µg/mL (≈ 89.6 µM) |  | 50 µg/mL (≈ 89.6 µM) | 50 µg/mL (≈ 89.6 µM) | 50 µg/mL (≈ 89.6 µM) | 50 µg/mL (≈ 89.6 µM) | 50 µg/mL (≈ 89.6 µM) | 50 µg/mL (≈ 89.6 µM) | C[C@@H](COS(=O)(=O)O)[C@H]1CC[C@H]2[C@@H]3[C@H](O)C[C@H]4C[C@@H](NCCCNCCCCN)CC[C@]4(C)[C@H]3CC[C@]12C
3 | 50 µg/mL (≈ 89.3 µM) | 12.5 µg/mL (≈ 22.3 µM) | 100 µg/mL (≈ 179 µM) | 12.5 µg/mL (≈ 22.3 µM) | 12.5 µg/mL (≈ 22.3 µM) | 25 µg/mL (≈ 44.7 µM) | 100 µg/mL (≈ 179 µM) | 25 µg/mL (≈ 44.7 µM) | CC(COS(=O)(=O)O)[C@H]1CC[C@H]2[C@@H]3[C@H](F)C[C@H]4C[C@H](NCCCNCCCCN)CC[C@]4(C)[C@H]3CC[C@]12C (single isomer, unassigned)
4 | 50 µg/mL (≈ 89.3 µM) | 25 µg/mL (≈ 44.7 µM) | 50 µg/mL (≈ 89.3 µM) | 12.5 µg/mL (≈ 22.3 µM) | 6.3 µg/mL (≈ 11.3 µM) | 50 µg/mL (≈ 89.3 µM) | 50 µg/mL (≈ 89.3 µM) | 25 µg/mL (≈ 44.7 µM) | CC(COS(=O)(=O)O)[C@H]1CC[C@H]2[C@@H]3[C@@H](F)C[C@H]4C[C@H](NCCCNCCCCN)CC[C@]4(C)[C@H]3CC[C@]12C (single isomer, unassigned)
5 | 3.1 µg/mL (≈ 6.46 µM) | 6.3 µg/mL (≈ 13.1 µM) | 100 µg/mL (≈ 208 µM) | 6.3 µg/mL (≈ 13.1 µM) | 6.3 µg/mL (≈ 13.1 µM) | 6.3 µg/mL (≈ 13.1 µM) | 100 µg/mL (≈ 208 µM) | 6.3 µg/mL (≈ 13.1 µM) | CC(CO)[C@H]1CC[C@H]2[C@@H]3[C@H](F)C[C@H]4C[C@@H](NCCCNCCCCN)CC[C@]4(C)[C@H]3CC[C@]12C (single isomer, unassigned)
6 | 6.3 µg/mL (≈ 13.6 µM) | 100 µg/mL (≈ 217 µM) | 50 µg/mL (≈ 108 µM) | 100 µg/mL (≈ 217 µM) | 6.3 µg/mL (≈ 13.6 µM) | 12.5 µg/mL (≈ 27.1 µM) | 100 µg/mL (≈ 217 µM) | 12.5 µg/mL (≈ 27.1 µM) | CC(CO)[C@H]1CC[C@H]2[C@@H]3CC[C@H]4C[C@@H](NCCCNCCCCN)CC[C@]4(C)[C@H]3CC[C@]12C (single isomer, unassigned)
7 | 6.3 µg/mL (≈ 13.1 µM) | 12.5 µg/mL (≈ 26.1 µM) | 100 µg/mL (≈ 208 µM) | 12.5 µg/mL (≈ 26.1 µM) | 6.3 µg/mL (≈ 13.1 µM) | 12.5 µg/mL (≈ 26.1 µM) | 100 µg/mL (≈ 208 µM) | 12.5 µg/mL (≈ 26.1 µM) | CC(CO)[C@H]1CC[C@H]2[C@@H]3[C@@H](F)C[C@H]4C[C@@H](NCCCNCCCCN)CC[C@]4(C)[C@H]3CC[C@]12C (single isomer, unassigned)
8 | 25 µg/mL (≈ 44.7 µM) | 50 µg/mL (≈ 89.3 µM) | 100 µg/mL (≈ 179 µM) | 50 µg/mL (≈ 89.3 µM) | 25 µg/mL (≈ 44.7 µM) | 12.5 µg/mL (≈ 22.3 µM) | 100 µg/mL (≈ 179 µM) | 50 µg/mL (≈ 89.3 µM) | CC(COS(=O)(=O)O)[C@H]1CC[C@H]2[C@@H]3[C@H](F)C[C@H]4C[C@@H](NCCCNCCCCN)CC[C@]4(C)[C@H]3CC[C@]12C (single isomer, unassigned)
9 | 100 µg/mL (≈ 208 µM) | 25 µg/mL (≈ 52.1 µM) | 100 µg/mL (≈ 208 µM) | 12.5 µg/mL (≈ 26.1 µM) | 12.5 µg/mL (≈ 26.1 µM) | 50 µg/mL (≈ 104 µM) | 100 µg/mL (≈ 208 µM) | 50 µg/mL (≈ 104 µM) | CC(CO)[C@H]1CC[C@H]2[C@@H]3[C@H](F)C[C@H]4C[C@H](NCCCNCCCCN)CC[C@]4(C)[C@H]3CC[C@]12C (single isomer, unassigned)
10 | 25 µg/mL (≈ 52.1 µM) | 12.5 µg/mL (≈ 26.1 µM) | 50 µg/mL (≈ 104 µM) | 6.3 µg/mL (≈ 13.1 µM) | 6.3 µg/mL (≈ 13.1 µM) | 12.5 µg/mL (≈ 26.1 µM) | 100 µg/mL (≈ 208 µM) | 12.5 µg/mL (≈ 26.1 µM) | CC(CO)[C@H]1CC[C@H]2[C@@H]3[C@@H](F)C[C@H]4C[C@H](NCCCNCCCCN)CC[C@]4(C)[C@H]3CC[C@]12C (single isomer, unassigned)
11 | 50 µg/mL (≈ 89.3 µM) | 50 µg/mL (≈ 89.3 µM) | 50 µg/mL (≈ 89.3 µM) | 50 µg/mL (≈ 89.3 µM) | 50 µg/mL (≈ 89.3 µM) | 50 µg/mL (≈ 89.3 µM) | 50 µg/mL (≈ 89.3 µM) | 25 µg/mL (≈ 44.7 µM) | CC(COS(=O)(=O)O)[C@H]1CC[C@H]2[C@@H]3[C@@H](F)C[C@H]4C[C@@H](NCCCNCCCCN)CC[C@]4(C)[C@H]3CC[C@]12C (single isomer, unassigned)
